Measured values published in ChEMBL document CHEMBL5247631, “Ferroptosis-related small-molecule compounds in cancer therapy: Strategies and applications” (Eur J Med Chem, 2022).
Blank lines part the entries; values can stand above or below the compound they belong to.

Experiments:
[1] = Cytotoxicity against human BJeLR cells overexpress oncogenic RAS assessed as induction of cell death; type: functional, cell-based
DLD-1 = assay: Antiproliferative activity against human DLD-1 cells assessed as reduction in cell viability incubated for 48 hrs by MTT assay; type: functional, cell-based; conditions: DLD-1, 48 h
HCT-116 = assay: Antiproliferative activity against human HCT-116 cells assessed as reduction in cell viability incubated for 48 hrs by MTT assay; type: functional, cell-based; conditions: HCT-116, 48 h
[2] = Induction of ferroptosis in human BJeLR cells assessed as inhibition of (cystine-glutamate antiporter) system Xc- mediated cystine transport; type: functional, cell-based; conditions: bjelr cell
DOHH-2 = assay: Anticancer activity against human DOHH-2 cells assessed as reduction in cell viability incubated for 24 hrs by CellTiter-Glo luminescent assay; type: functional, cell-based; conditions: DOHH-2, 24 h
SU-DHL-16 = assay: Anticancer activity against human SU-DHL-16 cells assessed as reduction in cell viability incubated for 24 hrs by CellTiter-Glo luminescent assay; type: functional, cell-based; conditions: SU-DHL-16, 24 h
[3] = Anticancer activity against human BJeLR cells assessed as reduction in cell viability incubated for 24 hrs by CellTiter-Glo luminescent assay; type: functional, cell-based
SU-DHL-6 = assay: Anticancer activity against human SU-DHL-6 cells assessed as reduction in cell viability incubated for 24 hrs by CellTiter-Glo luminescent assay; type: functional, cell-based; conditions: SU-DHL-6, 24 h
[4] = Anticancer activity against human OCI-Ly8 cells assessed as reduction in cell viability incubated for 24 hrs by CellTiter-Glo luminescent assay; type: functional, cell-based; conditions: OCI-Ly8, 24 h
SU-DHL10 = assay: Anticancer activity against human SU-DHL-10 cells assessed as reduction in cell viability incubated for 24 hrs by CellTiter-Glo luminescent assay; type: functional, cell-based; conditions: SU-DHL10, 24 h
SU-DHL-5 = assay: Anticancer activity against human SU-DHL-5 cells assessed as reduction in cell viability incubated for 24 hrs by CellTiter-Glo luminescent assay; type: functional, cell-based; conditions: SU-DHL-5, 24 h
SU-DHL-2 = assay: Anticancer activity against human SUDHL2 cells assessed as reduction in cell viability incubated for 24 hrs by CellTiter-Glo luminescent assay; type: functional, cell-based; conditions: SU-DHL-2, 24 h
SK-MEL-28 = assay: Antiproliferative activity against human SK-MEL-28 cells harboring BRAF V600E mutant assessed as cell viability incubated for 72 hrs by crystal violet staining based assay; type: functional; conditions: SK-MEL-28, 72 h
G-361 = assay: Antiproliferative activity against human G-361 cells harboring BRAF V600E mutant assessed as cell viability incubated for 72 hrs by crystal violet staining based assay; type: functional; conditions: G-361, 72 h
[5] = Anticancer activity against human PHMLER expressing CD24low phenotype cells assessed as reduction in cell viability incubated for 72 hrs; type: functional, cell-based
MDA-MB-231 = assay: Antiproliferative activity against human MDA-MB-231 cells assessed as inhibition of cell viability incubated for 72 hrs by MTT assay; type: functional, cell-based; conditions: MDA-MB-231, 72 h
HT-1080 = assay: Induction of ferroptosis in human HT-1080 cells assessed as inhibition of (cystine-glutamate antiporter) system Xc- mediated cystine transport; type: functional, cell-based
U-118-MG = assay: Induction of ferroptosis in human U-118-MG cells assessed as GPX4 degradation; type: functional, cell-based
LN-229 = assay: Induction of ferroptosis in human LN-229 cells assessed as GPX4 degradation; type: functional, cell-based
ES-2 = assay: Anticancer activity against human ES2 cells assessed as reduction in cell viability incubated for 72 hrs by Alamar Blue viability assay; type: functional, cell-based; conditions: ES-2, 72 h
NCI-N87 = assay: Anticancer activity against human NCI-N87 cells assessed as inhibition of cell viability incubated for 24 hrs by CCK-8 assay; type: functional, cell-based; conditions: NCI-N87, 24 h
AGS = assay: Anticancer activity against human AGS cells assessed as inhibition of cell viability incubated for 24 hrs by CCK-8 assay; type: functional, cell-based

Compound: O=S(=O)(c1ccc2c(c1)C(=NO)c1cc(S(=O)(=O)N3CCCCC3)ccc1-2)N1CCCCC1
- IC50 [1]: > 1000 nM

Compound: CC(C)Oc1ccc(CN2CCNCC2)cc1-n1c(CN2CCN(C(=O)COc3ccc(Cl)cc3)CC2)nc2ccccc2c1=O
- IC50 [2]: 900 nM

Compound: C#CCN[C@@H]1C=C[C@]2(O[C@H]([C@@H](CC)C(=O)[C@@H](C)[C@@H](O)[C@H](C)[C@@H]3O[C@@H]([C@@H](CC)C(=O)O)CC[C@@H]3C)[C@@H](C)C[C@H]2C)O[C@@]12CC[C@@](C)([C@H]1CC[C@](O)(CC)[C@H](C)O1)O2
- IC50 [5]: 100 nM

Compound: COC(=O)c1ccc([C@H]2c3[nH]c4ccccc4c3C[C@H](C(=O)OC)N2C(=O)CCl)cc1
- IC50 (HT-1080): 100 nM
- IC50 [2]: 100 nM

Compound: C#Cc1nc(C2=C(C)[C@H](O)CC2)cs1
- IC50 (HT-1080): 76000 nM

Compound: O=S(=O)(NC1CCCCC1)c1ccc2c(c1)C(=NO)c1cc(S(=O)(=O)NC3CCCCC3)ccc1-2
- IC50 (U-118-MG): 2600 nM
- IC50 (LN-229): 4200 nM

Compound: CC1CC[C@@]23C[C@H](O)C(=O)[C@@]2(O)[C@]1(C)[C@H](OC(=O)CCl)C[C@@H](C1=CCn2c(=O)n(-c4ccccc4)c(=O)n2C1)[C@@H]3C (stereo not given in full)
- IC50 (ES-2): 1600 nM

Compound: C[C@@H]1CC[C@@]2(OC1)O[C@H]1C[C@H]3[C@@H]4CC=C5C[C@@H](O)C[C@@H](O[C@H]6O[C@H](C)[C@H](O)[C@H](O)[C@H]6O[C@@H]6O[C@@H](C)[C@H](O)[C@@H](O)[C@H]6O)[C@]5(C)[C@H]4CC[C@]3(C)[C@H]1[C@@H]2C
- IC50 (NCI-N87): 21300 nM
- IC50 (AGS): 10300 nM

Now from value to compound, other results behind:

- IC50 (DLD-1): 50200 nM
- IC50 (HCT-116): 44500 nM
Compound: COc1ccc2oc(=N)c(C(N)=S)cc2c1

- IC50 (SU-DHL-16): 12 nM
- IC50 (SU-DHL-6): 1 nM
- IC50 (SU-DHL10): 4 nM
- IC50 (SU-DHL-5): 1 nM
- IC50 (SU-DHL-2): 21 nM
Compound: CC(C)Oc1ccc(C(=O)Cn2ccnc2)cc1-n1c(CN2CCN(C(=O)COc3ccc(Cl)cc3)CC2)nc2ccccc2c1=O
- IC50 (DOHH-2): 14 nM
- IC50 [3]: 3 nM
- IC50 [4]: 1 nM

- IC50 (SK-MEL-28): 2400 nM
Compound: Cc1cc(-c2nc(-c3ccc(OC(F)(F)F)cc3)no2)nn1Cc1ccnc(N2CCN(C3CC3)CC2)c1
- IC50 (G-361): 4800 nM

- IC50 (MDA-MB-231): 340 nM
Compound: C=C1C(=O)O[C@H]2[C@H]1CC/C(COC(=O)/C=C/c1c(OC)cccc1OC)=C\CC[C@@]1(C)O[C@@H]21

- IC50 [2]: < 10000 nM
Compound: CCCC[S@@](=N)(=O)CC[C@@H](N)C(=O)O
